Measured values published in patent US20160311791A1, “NOVEL TRICYCLIC CALCIUM SENSING RECEPTOR ANTOGONISTS FOR THE TREATMENT OF OSTEOPOSOSIS” (MERCK SHARP & DOHME CORP., priority 2013, published 2016).

molecular target: T1, human CaSR (Homo sapiens, UniProt P41180); experiment: CaSR FLIPR assay (calcilytic activity); type: cell-based; design: expressed in transfected cells; conditions: HEK293 cells stably expressing human recombinant CaSR; 1 mM CaCl2 agonist; Tables 1-24; read-out: FLIPR ASSAY IC50
T1 sequence (P41180 20-1078): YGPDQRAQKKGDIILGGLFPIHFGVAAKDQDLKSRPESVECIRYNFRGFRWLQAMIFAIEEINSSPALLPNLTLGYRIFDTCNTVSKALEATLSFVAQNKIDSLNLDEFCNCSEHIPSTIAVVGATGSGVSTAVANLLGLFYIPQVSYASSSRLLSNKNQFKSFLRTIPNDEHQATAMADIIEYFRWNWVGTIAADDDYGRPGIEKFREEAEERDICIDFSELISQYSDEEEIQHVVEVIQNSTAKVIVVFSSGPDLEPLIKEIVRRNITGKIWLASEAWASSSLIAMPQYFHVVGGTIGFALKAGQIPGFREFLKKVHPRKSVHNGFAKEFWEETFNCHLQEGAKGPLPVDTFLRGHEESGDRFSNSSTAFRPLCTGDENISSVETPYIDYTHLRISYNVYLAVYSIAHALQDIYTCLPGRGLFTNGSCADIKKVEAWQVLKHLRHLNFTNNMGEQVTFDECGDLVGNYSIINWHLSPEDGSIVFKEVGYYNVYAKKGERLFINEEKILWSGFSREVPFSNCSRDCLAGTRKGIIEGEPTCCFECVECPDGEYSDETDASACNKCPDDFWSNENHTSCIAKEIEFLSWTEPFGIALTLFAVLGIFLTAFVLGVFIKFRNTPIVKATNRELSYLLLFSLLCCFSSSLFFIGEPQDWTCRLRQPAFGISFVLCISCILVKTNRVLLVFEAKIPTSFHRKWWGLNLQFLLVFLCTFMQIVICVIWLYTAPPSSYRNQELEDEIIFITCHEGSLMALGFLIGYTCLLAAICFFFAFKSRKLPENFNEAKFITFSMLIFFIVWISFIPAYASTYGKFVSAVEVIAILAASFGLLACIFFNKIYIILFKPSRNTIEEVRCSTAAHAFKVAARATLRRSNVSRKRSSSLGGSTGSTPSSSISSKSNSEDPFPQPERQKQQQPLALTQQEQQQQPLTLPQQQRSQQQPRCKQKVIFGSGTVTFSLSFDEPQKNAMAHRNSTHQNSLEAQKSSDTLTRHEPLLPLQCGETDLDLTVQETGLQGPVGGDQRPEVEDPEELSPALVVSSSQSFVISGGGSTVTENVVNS
Method: Procedures for CaSR FLIPR Assay
Calcilytic activity of the compound is measured in HEK293 cells stably expressing human recombinant CaSR (HEK-CaSR) using a FLIPR^TETRA device (Molecular Devices, Sunnyvale, Calif.) according to the manufacturer's directions. […] On the day of the assay, one vial of FLIPR Calcium 4 Assay Kit reagent Component A was equilibrated to room temperature. The content of the Component A vial was diluted by adding 10 ml dilution buffer (2×loading dye). The sample was mixed by vortexing (1-2 minutes) until the contents of the vial dissolved. The Component A vial mixture was diluted with 10 ml dilution buffer. Media was aspirated from the cells and 80 μl of loading buffer was added to each well. Plates were incubated for 1 hour at 37° C. and then placed at room temperature for 10 minutes. A two-stage method of generating 10-point serial dilutions was used. Compound was serially diluted in 100% DMSO (10 point, 3-fold dilution of each compound from 2 mM in 100% DMSO). 3 μl of serially diluted compound was transferred into a second assay microplate that contained 97 μl of TETRA dilution buffer (20 mM HEPES pH7.4, 1×HBSS without Ca and Mg, 0.4 mM CaCl2, 0.4 mM MgSO4, 0.5 mM MgCl2) to create the intermediate dilution plate. After reading the base line, the compounds in 0.5% DMSO in dilution buffer were added to their respective wells as 20 μl aliquots at 6×the final drug concentration. The fluorescence signals were then read. Subsequently, 20 μl of 3.6 mM of CaCl2 agonist (1 mM final concentration) was added to each well. For background, 20 μl of TETRA dilution buffer was added instead. The protocol consisted of a pre-addition read of 10 frames (10×1 frame/sec), a post 1st addition read of 100 frames (60×1 frame/sec, 40×1 frame/3 sec), pause 3 min, a post 2nd addition read of 100 frames (60×1 frame/sec, 40×1 frame/3 sec) on a FLIPR^TETRA Plate Reader.

Going from `C[C@@H](OC[C@H](O)CNC(C)(C)Cc1ccc2c(c1)CCC2)c1cccc2c1[C@@H]1[C@H](O2)[C@H]1C(=O)O` [Example 5-7] to `C[C@@H](OC[C@H](O)CNC(C)(C)Cc1ccc2c(c1)CCC2)c1cccc2c1O[C@@H]1[C@@H](C(=O)O)[C@H]21` [Example 1-7], the IC50 rises from 25 nM to 110 nM (4.4-fold). The first is the more potent here.

First: C[C@@H](OC[C@H](O)CNC(C)(C)Cc1ccc2c(c1)OCO2)c1cccc2c1[C@@H]1[C@H](O2)[C@H]1C(=O)O [Example 5-8]
Second: C[C@@H](OC[C@H](O)CNC(C)(C)Cc1ccc(Cl)c(Cl)c1)c1cccc2c1[C@@H]1[C@H](O2)[C@H]1C(=O)O [Example 5-12]
The IC50 of the first is 4.1-fold higher: 160 nM for the first, 39 nM for the second. The second is the more potent here.

`COc1ccc(CC(C)(C)NC[C@@H](O)CO[C@H](C)c2c(Cl)cc(C)c3c2[C@@H]2[C@H](O3)[C@H]2C(=O)O)c(F)c1` [Example 16-5] and `CSc1ccc(CC(C)(C)NC[C@@H](O)CO[C@H](C)c2c(Cl)cc(C)c3c2[C@@H]2[C@H](O3)[C@H]2C(=O)O)cc1F` [Example 16-6] are within 1.5-fold of each other in IC50: 24 nM for the first, 17 nM for the second.

Going from `Cc1ccc(CC(C)(C)NC[C@@H](O)CO[C@H](C)c2cccc3c2O[C@@H]2[C@@H](C(=O)O)[C@H]32)cc1C` [Example 1-5] to `Cc1ccc(CC(C)(C)NC[C@@H](O)CO[C@H](C)c2cccc3c2[C@@H]2[C@H](O3)[C@H]2C(=O)O)cc1C` [Example 5-5], the IC50 falls from 230 nM to 26 nM (8.8-fold). The second is the more potent here.

Compared with `CSc1ccc(CC(C)(C)NC[C@@H](O)CO[C@H](C)c2cccc3c2[C@@H]2[C@H](O3)[C@H]2C(=O)O)cc1C` [Example 5-19], `CSc1ccc(CC(C)(C)NC[C@@H](O)CO[C@H](C)c2cccc3c2[C@@H]2[C@H](O3)[C@H]2C(=O)O)cc1Cl` [Example 5-18] is 1.8-fold lower in IC50: 97 nM for the first, 53 nM for the second.

Compared with `C[C@@H](OC[C@H](O)CNC(C)(C)Cc1ccc2ccccc2c1)c1cc(F)cc2c1O[C@@H]1[C@@H](C(=O)O)[C@H]21` [Example 19-1], `Cc1ccc([C@@H](C)OC[C@H](O)CNC(C)(C)Cc2ccc3ccccc3c2)c2c1O[C@H]1[C@H](C(=O)O)[C@@H]21` [Example 9-1] is 8-fold lower in IC50: 176 nM for the first, 22 nM for the second. The second is the more potent here.

Compared with `C[C@@H](OC[C@H](O)CNC(C)(C)CC1Cc2ccccc2C1)c1cccc2c1[C@@H]1[C@H](O2)[C@H]1C(=O)O` [Example 5-3], `Cc1ccc([C@@H](C)OC[C@H](O)CNC(C)(C)CC2Cc3ccccc3C2)c2c1O[C@@H]1[C@@H](C(=O)O)[C@H]21` [Example 8-3] is 1.8-fold lower in IC50: 35.5 nM for the first, 20 nM for the second.

Going from `Cc1cc(Cl)c([C@@H](C)OC[C@H](O)CNC(C)(C)Cc2ccc3occc3c2)c2c1O[C@@H]1[C@@H](C(=O)O)[C@H]21` [Example 16-2] to `Cc1ccc([C@@H](C)OC[C@H](O)CNC(C)(C)Cc2ccc3occc3c2)c2c1O[C@@H]1[C@@H](C(=O)O)[C@H]21` [Example 8-7], the IC50 rises from 17 nM to 42 nM (2.5-fold).

Compared with `C[C@@H](OC[C@H](O)CNC(C)(C)Cc1ccc(F)c(F)c1)c1cccc2c1O[C@@H]1[C@@H](C(=O)O)[C@H]21` [Example 1-15], `C[C@@H](OC[C@H](O)CNC(C)(C)Cc1ccc(Cl)c(F)c1)c1cccc2c1O[C@@H]1[C@@H](C(=O)O)[C@H]21` [Example 1-2] is 8.6-fold lower in IC50: 1270 nM for the first, 148 nM for the second. The second is the more potent here.

First: C[C@@H](OC[C@H](O)CNC(C)(C)Cc1ccc2ccccc2c1)c1cccc2c1[C@@H]1[C@H](O2)[C@H]1C(=O)NS(=O)(=O)C1(C)CC1 [Example 6-1]
Second: C[C@@H](OC[C@H](O)CNC(C)(C)Cc1ccc2ccccc2c1)c1c(Cl)ccc2c1[C@@H]1[C@H](O2)[C@H]1C(=O)O [Example 15-1]
The IC50 of the first is 1.8-fold higher: 30 nM for the first, 17 nM for the second. The second is the more potent here.

Compared with `C[C@@H](OC[C@H](O)CNC(C)(C)Cc1ccc2ccccc2c1)c1cccc2c1C[C@@H]1[C@@H](C(=O)O)[C@H]21` [Example 14-1], `C[C@@H](OC[C@H](O)CNC(C)(C)Cc1ccc2sccc2c1)c1cccc2c1O[C@@H]1[C@@H](C(=O)O)[C@H]21` [Example 1-9] is 10-fold lower in IC50: 270 nM for the first, 27 nM for the second. The second is the more potent here.

Going from `CSc1ccc(CC(C)(C)NC[C@@H](O)CO[C@H](C)c2ccc(C)c3c2C2[C@H](O3)[C@H]2C(=O)O)cc1` (stereo partly drawn) [Example 8-23] to `Cc1ccc(CC(C)(C)NC[C@@H](O)CO[C@H](C)c2ccc(C)c3c2[C@@H]2[C@H](O3)[C@H]2C(=O)O)cc1F` [Example 8-4], the IC50 falls from 40 nM to 21 nM (1.9-fold). The second is the more potent here.

First: Cc1ccc([C@@H](C)OC[C@H](O)CNC(C)(C)CCOc2ccccc2)c2c1O[C@@H]1[C@@H](C(=O)O)[C@H]21 [Example 8-17]
Second: Cc1ccc([C@@H](C)OC[C@H](O)CN2CCCC2(C)Cc2ccccc2)c2c1O[C@@H]1[C@@H](C(=O)O)[C@H]21 (stereo partly drawn) [Example 8-18]
The IC50 of the first is 15-fold lower: 90 nM for the first, 1330 nM for the second.

First: Cc1cc(Cl)c([C@@H](C)OC[C@H](O)CNC(C)(C)Cc2ccc3c(c2)OCCO3)c2c1O[C@@H]1[C@@H](C(=O)O)[C@H]21 [Example 16-4]
Second: C[C@@H](OC[C@H](O)CNC(C)(C)Cc1ccc2c(c1)OCCO2)c1cccc2c1O[C@@H]1[C@@H](C(=O)O)[C@H]21 [Example 1-10]
The IC50 of the first is 11-fold lower: 41 nM for the first, 460 nM for the second.

Going from `C[C@@H](OC[C@H](O)CNC(C)(C)Cc1ccc2c(c1)CCC2)c1cccc2c1[C@@H]1[C@H](C2)[C@H]1C(=O)O` [Example 13-3] to `CSc1ccc(CC(C)(C)NC[C@@H](O)CO[C@H](C)c2cccc3c2O[C@@H]2[C@@H](C(=O)O)[C@H]32)cc1F` [Example 1-17], the IC50 rises from 88 nM to 165 nM (1.9-fold).
